Measurements taken from PMC10925993, “6-Aryl-4-cycloamino-1,3,5-triazine-2-amines: synthesis, antileukemic activity, and 3D-QSAR modelling” (RSC Advances, 2024).
“Also recorded” adds a separate entry of the source. Read-outs that look alike come from different tables or passages of the source.

How the values were obtained:
Jurkat T cells [1] = assay: Inhibition of Jurkat T cell growth (GI50), MTS assay; format: cell-based; conditions: Homo sapiens
Description: These compounds were selected for further testing to estimate their 50% growth inhibition (GI50) value. Standard antileukemic drugs mercaptopurine, methotrexate and cytarabine were chosen as positive controls.
(§1) An MTS (3-(4,5-dimethylthiazol-2-yl)-5-(3-carboxymethoxyphenyl)-2-(4-sulfophenyl)-2H-tetrazolium inner salt) assay[20] was used to assess the leukemic cell viability. Jurkat T cells (human leukemic T cell, clone E6-1) from American Type Culture Collection (ATCC) were cultured in RPMI-1640 medium (Nacalai Tesque, Japan) supplemented with 10% v/v fetal bovine serum (FBS) (Biosera, France). The cells were maintained at 37 °C in a humidified 5% CO2 incubator (Thermo Fisher, USA). A total of 2 × 10^3 cells per 100 μL cell culture media were seeded into each well of a 96-well plate and incubated for 24 h. Then, tested compounds or reference drugs [6-mercaptopurine (Merck Millipore, Germany), methotrexate (Merck Millipore, Germany) and cytarabine (Merck Millipore, Germany)] were added, followed by incubation for 72 h. After that, a mixture of MTS (Sigma Aldrich, USA) and phenazine methosulfate (PMS) (Nacalai Tesque, Japan) were added to each well, followed by another incubation for 1 h to 4 h at 37 °C. The absorbance in each well was measured at 490 nm using a microplate reader (Tecan NanoQuant Infinite M200 Pro, Austria). The percentage of cell viability was estimated by comparing absorbance in wells with the treated and untreated (vehicle control) cells using the following formula: ODtreated/ODuntreated × 100%. All experiments were performed in triplicate and repeated in three independent experiments. The GI50 values were calculated using sigmoidal concentration-response curves generated by the GraphPad Prism 8 program.[21]

Jurkat T cells [2] = assay: Antiproliferative screening at 10 μM, MTS assay; format: cell-based, human; conditions: for viability at 10 µM: Homo sapiens, Jurkat T cells, 72 h after treatment, MTS, mean of three independent experiments, read-out: Cell viability (%); for Antiproliferative activity against Jurkat T cells (in words): screening concentration 10 μM, 72 h
Description: The Jurkat T cell line was chosen for its reliability as a model for chemotherapeutic studies, particularly in T-cell leukemia.[13]
as §1, with “Jurkat T cells (human leukemic T cell, clone E6-1) from American Type Culture Collection (ATCC) were cultured in RPMI-1640 medium (Nacalai Tesque, Japan) supplemented with 10% v/v fetal bovine serum (FBS) (Biosera, France). The cells were maintained at 37 °C in a humidified 5% CO2 incubator (Thermo Fisher, USA).” left out, “After that, a mixture of MTS (Sigma Aldrich, USA) and phenazine methosulfate (PMS) (Nacalai Tesque, Japan) were added to each well, followed by another incubation for 1 h to 4 h at 37 °C.” left out

Jurkat T cells [3] = assay: AO/PI double fluorescence staining, cell morphology study; format: cell-based, human; conditions: treatment at GI50 concentration, 24 h, 48 h, 72 h
Description: The GI50 value for this compound was selected as the treatment concentration. […] Moreover, some Jurkat T cells underwent late stages of apoptosis as shown by the reddish-orange stain (Fig. 4C). Similar events also occurred 48 h and 72 h after the treatment but with a lower number of viable cells (Fig. 4D and E).
Fluorescence microscopy was applied to portray apoptotic and necrotic changes in Jurkat T cells using AO/PI fluorescence staining.[23] The Jurkat T cells were cultured as described above. A total of 5 × 10^5 cells (based on the doubling time for the cell line) per 1 mL cell culture media were seeded into each well of a 6-well plate (Biologix, USA) and incubated for 24 h. […] The fluorescence dye containing AO (10 μg mL^−1, 16 μL) and PI (10 μg mL^−1, 13 μL) was prepared immediately prior to use. The treated cells, positive and negative controls containing dyes were examined immediately under an inverted UV-fluorescent microscope (Nikon Ti2-E, Japan) to prevent fluorescence dyes from fading. The images of viable cells and non-viable cells after treatment were taken by Nikon Ti2-E software. The observations were repeated in three independent experiments.

[4] = GI50 against Jurkat T cells converted to negative logarithmic scale, read-out: Experimental pGI50 (converted)
[5] = concentration required to inhibit Jurkat T cell growth by 50%, 72 h, MTS, mean of three independent experiments, read-out: GI50 ± SEM

GI50 (Jurkat T cells [1]; [4]) [µM] | GI50 (Jurkat T cells [1]; [5]) [µM] | melting point [°C] | Structure (SMILES) | viability at 10 µM (Jurkat T cells [2]) [%] | Antiproliferative activity against Jurkat T cells (in words) (Jurkat T cells [2]) | Jurkat T cell morphology, type of cell death (AO/PI staining) (Jurkat T cells [3])
2.14 | 2.12 ± 0.97 | 226 to 227 | CN(C)c1ccc(-c2nc(N)nc(N3CCc4ccccc43)n2)cc1 [9{7,8}, 6-[4-(N,N-Dimethylamino)phenyl]-4-(indolin-1-yl)-1,3,5-triazine-2-amine] | 30 | – | –
3.24 | 3.23 ± 0.16 | 181 to 182 | Nc1nc(-c2ccc(C(F)(F)F)cc2)nc(N2CCc3ccccc3C2)n1 [9{6,11}, 6-[4-(Trifluoromethyl)phenyl]-4-(3,4-dihydroisoquinolin-2(1H)-yl)-1,3,5-triazine-2-amine] | 3 | – | –
22.9 | 23.07 ± 0.08 | 188 to 189 | Nc1nc(-c2ccc(OCc3ccccc3)cc2)nc(N2CCc3ccccc32)n1 [9{7,15}, 6-(4-(Benzyloxy)phenyl)-4-(indolin-1-yl)-1,3,5-triazine-2-amine] | 32 | – | –
3.24 | 3.23 ± 0.88 | 152 to 153 | CC1CCN(c2nc(N)nc(-c3ccc(OC(F)(F)F)cc3)n2)CC1 [9{3,12}, 6-[4-(Trifluoromethoxy)phenyl]-4-(4-methylpiperidino)-1,3,5-triazine-2-amine] | 5 | effectively inhibited Jurkat T cell growth | –
1.78 | 1.79 ± 0.58 | 166 to 167 | Cc1ccc(-c2nc(N)nc(N3CCc4ccccc4C3)n2)cc1 [9{6,6}, 6-(4-Methylphenyl)-4-(3,4-dihydroisoquinolin-2(1H)-yl)-1,3,5-triazine-2-amine] | 4 | – | –
6.92 | 6.88 ± 1.22 | 125 to 126 | Nc1nc(-c2cccc(Oc3ccccc3)c2)nc(N2CCCCC2)n1 [9{2,13}, 4-Piperidino-6-(3-phenoxyphenyl)-1,3,5-triazine-2-amine] | 10 | effectively inhibited Jurkat T cell growth | –
1.02 | 1.02 ± 0.3 | – | Nc1nc(-c2cccc(F)c2)nc(N2CCc3ccccc3C2)n1 [Compound 9{6,2}, 6-(3-Fluorophenyl)-4-(3,4-dihydroisoquinolin-2(1H)-yl)-1,3,5-triazine-2-amine] | 1 | – | necrotic type of cell death; also recorded: probably involved aponecrosis; also recorded: triggered the aponecrosis
6.61 | 6.54 ± 0.34 | 143 to 144 | Nc1nc(-c2cccc(OCc3ccccc3)c2)nc(N2CCc3ccccc3C2)n1 [9{6,14}, 6-(3-(Benzyloxy)phenyl)-4-(3,4-dihydroisoquinolin-2(1H)-yl)-1,3,5-triazine-2-amine] | 23 | – | –
1.17 | 1.18 ± 0.22 | 119 to 120 | Nc1nc(-c2ccc(OC(F)(F)F)cc2)nc(N2CCc3ccccc3C2)n1 [9{6,12}, 6-[4-(Trifluoromethoxy)phenyl]-4-(3,4-dihydroisoquinolin-2(1H)-yl)-1,3,5-triazine-2-amine] | 3 | – | –
1.91 | 1.89 ± 0.48 | 195 to 196 | Nc1nc(-c2ccc(F)cc2)nc(N2CCc3ccccc32)n1 [9{7,3}, 6-(4-Fluorophenyl)-4-(indolin-1-yl)-1,3,5-triazine-2-amine] | 35 | – | –
1.55 | 1.54 ± 0.66 | 128 to 129 | Nc1nc(-c2cccc(Oc3ccccc3)c2)nc(N2CCc3ccccc3C2)n1 [9{6,13}, 4-(3,4-Dihydroisoquinolin-2(1H)-yl)-6-(3-phenoxyphenyl)-1,3,5-triazine-2-amine] | 4 | – | –
10.7 | 10.8 ± 0.13 | 136 to 137 | Nc1nc(-c2ccc(OC(F)(F)F)cc2)nc(N2CCCCC2)n1 [9{2,12}, 6-[4-(Trifluoromethoxy)phenyl]-4-piperidino-1,3,5-triazine-2-amine] | 12 | effectively inhibited Jurkat T cell growth | –
29.5 | 29.6 ± 2.2 | 165 to 166 | COc1ccc(-c2nc(N)nc(N3CCc4ccccc4C3)n2)cc1 [9{6,9}, 6-(4-Methoxyphenyl)-4-(3,4-dihydroisoquinolin-2(1H)-yl)-1,3,5-triazine-2-amine] | 14 | – | –
3.31 | 3.3 ± 0.65 | 183 to 184 | Nc1nc(-c2ccc(Cl)cc2)nc(N2CCc3ccccc3C2)n1 [9{6,4}, 6-(4-Chlorophenyl)-4-(3,4-dihydroisoquinolin-2(1H)-yl)-1,3,5-triazine-2-amine] | 2 | – | –
– | 0.37 ± 0.03 | – | CN(Cc1cnc2nc(N)nc(N)c2n1)c1ccc(C(=O)N[C@@H](CCC(=O)O)C(=O)O)cc1 [Methotrexate, methotrexate, reference compound] | – | – | induced the late apoptotic morphological changes
